Measurements: patent US20260297118A1, “SUBSTITUTED PYRIMIDINONE AND AZAPYRIMIDINONE COMPOUNDS, COMPOSITIONS, AND USES THEREOF” (LAKEWOOD AMEDEX, INC., priority 2023, published 2026)

What was measured:
Format in all cases: cell-based
[1] = system: Staphylococcus aureus (43330); experiment: MIC, broth microdilution, Staphylococcus aureus (43330); conditions: pH 3, Mueller Hinton Broth, 18 to 24 hours, read-out: MIC
Experimental: (§1) MIC testing is conducted using the broth (Mueller Hinton Broth) microdilution procedures relevant to each organism group as established by the Clinical and Laboratory Standards Institute (CLSI; 3-7). MIC plates are prepared in accordance with CLSI (3-7). To prepare the test plates, automated liquid handlers are used to conduct serial dilutions and liquid transfers. Automated liquid handlers utilized in this study include the Multidrop 384 (Labsystems, Helsinki, Finland) and the Biomek 2000 (Beckman Coulter, Fullerton CA). The solution is diluted to desired pH using 1 M Citric Acid or 1 M NaOH buffer. A standardized inoculum of each test organism is prepared per CLSI methods (3, 5-7) to equal a 0.5 McFarland standard in the appropriate media followed by an additional 1:20 dilution (1:10 for anaerobes).
(§2) The plates are then inoculated with 10 μL of the diluted 0.5 McFarland suspension using the Biomek 2000 from low to high drug concentration, resulting in a final concentration of approximately 5×10^5 CFU/mL per well. An un-inoculated plate is incubated for the purpose of assessing solubility of the drug in the test media. The plates are stacked 3 to 4 high, covered with a sterile lid on the top plate, and incubated for 18 to 24 hours according to CLSI. The MIC is recorded as the lowest concentration of respective compound that inhibited visible growth of the organism.

Escherichia coli (25922) = experiment: MIC, broth microdilution, Escherichia coli (25922); conditions: pH 3, Mueller Hinton Broth, 18 to 24 hours, read-out: MIC
Experimental: as §1, §2

[2] = system: Pseudomonas aeruginosa (27853); experiment: MIC, broth microdilution, Pseudomonas aeruginosa (27853); conditions: pH 3, Mueller Hinton Broth, 18 to 24 hours, read-out: MIC
Experimental: as §1, §2

Candida albicans (22972) = experiment: MIC, broth microdilution, Candida albicans (22972); conditions: pH 3, Mueller Hinton Broth, 18 to 24 hours, read-out: MIC
Experimental: as §1, §2

E. faecalis ATCC-29212 = experiment: MIC, broth microdilution, E. faecalis ATCC-29212; set-up: unit not given beside the values; conditions: E. faecalis ATCC-29212, Gram +ve; pH 3; 18 to 24 hours
Experimental: as §1, §2

E. faecalis MMX-3353 = experiment: MIC, broth microdilution, E. faecalis MMX-3353; conditions: E. faecalis MMX-3353, Gram +ve; pH 3; 18 to 24 hours
Experimental: as §1, §2

E. faecium ATCC-35667 = experiment: MIC, broth microdilution, E. faecium ATCC-35667; conditions: E. faecium ATCC-35667, Gram +ve; pH 3; 18 to 24 hours
Experimental: as §1, §2

E. faecium MMX-3355 = experiment: MIC, broth microdilution, E. faecium MMX-3355; set-up: unit not given beside the values; conditions: E. faecium MMX-3355, Gram +ve; pH 3; 18 to 24 hours
Experimental: as §1, §2

S. agalactiae ATCC-13813 = experiment: MIC, broth microdilution, S. agalactiae ATCC-13813; set-up: unit not given beside the values; conditions: S. agalactiae ATCC-13813, Gram +ve; pH 3; 18 to 24 hours
Experimental: as §1, §2

S. aureus ATCC -3591 = experiment: MIC, broth microdilution, S. aureus ATCC -3591; set-up: unit not given beside the values; conditions: S. aureus ATCC -3591, Gram +ve; pH 3; 18 to 24 hours
Experimental: as §1, §2

S. aureus ATCC-29213 = experiment: MIC, broth microdilution, S. aureus ATCC-29213; set-up: unit not given beside the values; conditions: S. aureus ATCC-29213, Gram +ve; pH 3; 18 to 24 hours
Experimental: as §1, §2

[3] = system: S. dysgalactiae ATCC-6644; experiment: MIC, broth microdilution, S. dysgalactiae ATCC-6644; set-up: unit not given beside the values; conditions: S. dysgalactiae ATCC-6644, Gram +ve; pH 3; 18 to 24 hours
Experimental: as §1, §2

[4] = system: S. haemolyticus ATCC-29970; experiment: MIC, broth microdilution, S. haemolyticus ATCC-29970; conditions: S. haemolyticus ATCC-29970, Gram +ve; pH 3; 18 to 24 hours
Experimental: as §1, §2

S. pyogenes ATCC-49399 = experiment: MIC, broth microdilution, S. pyogenes ATCC-49399; set-up: unit not given beside the values; conditions: S. pyogenes ATCC-49399, Gram +ve; pH 3; 18 to 24 hours
Experimental: as §1, §2

[5] = system: S. saprophyticus ATCC-49907; experiment: MIC, broth microdilution, S. saprophyticus ATCC-49907; set-up: unit not given beside the values; conditions: S. saprophyticus ATCC-49907, Gram +ve; pH 3; 18 to 24 hours
Experimental: as §1, §2

A. baumannii ATCC-19606 = experiment: MIC, broth microdilution, A. baumannii ATCC-19606; set-up: unit not given beside the values; conditions: A. baumannii ATCC-19606, Gram −ve; pH 3; 18 to 24 hours
Experimental: as §1, §2

[6] = system: A. radioresistens MMX-8551; experiment: MIC, broth microdilution, A. radioresistens MMX-8551; set-up: unit not given beside the values; conditions: A. radioresistens MMX-8551, Gram −ve; pH 3; 18 to 24 hours
Experimental: as §1, §2

C. freundii CDC-0157 = experiment: MIC, broth microdilution, C. freundii CDC-0157; set-up: unit not given beside the values; conditions: C. freundii CDC-0157, Gram −ve; pH 3; 18 to 24 hours
Experimental: as §1, §2

C. striatum ATCC-6940 = experiment: MIC, broth microdilution, C. striatum ATCC-6940; conditions: C. striatum ATCC-6940, Gram +ve; pH 3; 18 to 24 hours
Experimental: as §1, §2

E. cloacae ATCC BAA-2468 = experiment: MIC, broth microdilution, E. cloacae ATCC BAA-2468; set-up: unit not given beside the values; conditions: E. cloacae ATCC BAA-2468, Gram −ve; pH 3; 18 to 24 hours
Experimental: as §1, §2

E. coli ATCC-25922 = experiment: MIC, broth microdilution, E. coli ATCC-25922; set-up: unit not given beside the values; conditions: E. coli ATCC-25922, Gram −ve; pH 3; 18 to 24 hours
Experimental: as §1, §2

E. coli MMX-8870 = experiment: MIC, broth microdilution, E. coli MMX-8870; conditions: E. coli MMX-8870, Gram −ve; pH 3; 18 to 24 hours
Experimental: as §1, §2

H. influenzae ATCC-49247 = experiment: MIC, broth microdilution, H. influenzae ATCC-49247; set-up: unit not given beside the values; conditions: H. influenzae ATCC-49247, Gram −ve; pH 3; 18 to 24 hours
Experimental: as §1, §2

[7] = system: K. pneumoniae ATCC BAA-2146; experiment: MIC, broth microdilution, K. pneumoniae ATCC BAA-2146; set-up: unit not given beside the values; conditions: K. pneumoniae ATCC BAA-2146, Gram −ve; pH 3; 18 to 24 hours
Experimental: as §1, §2

K. pneumoniae ATCC-43816 = experiment: MIC, broth microdilution, K. pneumoniae ATCC-43816; set-up: unit not given beside the values; conditions: K. pneumoniae ATCC-43816, Gram −ve; pH 3; 18 to 24 hours
Experimental: as §1, §2

M. morganii CDC-0519 = experiment: MIC, broth microdilution, M. morganii CDC-0519; set-up: unit not given beside the values; conditions: M. morganii CDC-0519, Gram −ve; pH 3; 18 to 24 hours
Experimental: as §1, §2

P. aeruginosa ATCC-27853 = experiment: MIC, broth microdilution, P. aeruginosa ATCC-27853; set-up: unit not given beside the values; conditions: P. aeruginosa ATCC-27853, Gram −ve; pH 3; 18 to 24 hours
Experimental: as §1, §2

P. mirabilis CDC-0155 = experiment: MIC, broth microdilution, P. mirabilis CDC-0155; set-up: unit not given beside the values; conditions: P. mirabilis CDC-0155, Gram −ve; pH 3; 18 to 24 hours
Experimental: as §1, §2

Compound | MIC [1] [µg/mL] | MIC (Escherichia coli (25922)) [µg/mL] | MIC [2] [µg/mL] | MIC (E. faecalis ATCC-29212) | MIC (E. faecalis MMX-3353) | MIC (E. faecium ATCC-35667) | MIC (E. faecium MMX-3355) | MIC (S. agalactiae ATCC-13813) | MIC (S. aureus ATCC -3591) | MIC (S. aureus ATCC-29213) | MIC [3] | MIC [4] | MIC (S. pyogenes ATCC-49399) | MIC [5] | MIC (A. baumannii ATCC-19606) | MIC [6] | MIC (C. freundii CDC-0157) | MIC (C. striatum ATCC-6940) | MIC (E. cloacae ATCC BAA-2468) | MIC (E. coli ATCC-25922) | also measured
CCCCOP(=O)(O)OC[C@H]1O[C@@H](n2ccc(N)nc2=O)C(F)(F)[C@@H]1O [LAI-006, ((2R,3R,5R)-5-(4-amino-2-oxopyrimidin-1(2H)-yl)-4,4-difluoro-3-hydroxytetrahydrofuran-2-yl)methyl butyl hydrogen phosphate] | 2300 | 600 | 800 | 0.39 | 3.13 | 1.56 | 3.13 | 0.10 | 3.13 | 1.56 | 0.05 | 0.10 | 0.39 | 0.10 | 0.39 | 0.39 | 3.13 | 0.78 | 0.39 | 0.39 | MIC (Candida albicans (22972)): 50 mg/mL; MIC (E. coli MMX-8870): 0.78; MIC (H. influenzae ATCC-49247): 0.78; MIC [7]: 0.78; MIC (K. pneumoniae ATCC-43816): 0.78; MIC (M. morganii CDC-0519): 3.13; MIC (P. aeruginosa ATCC-27853): 0.78; MIC (P. mirabilis CDC-0155): 3.13
CCCCOP(=O)(O)OC[C@@H]1CC[C@H](n2ccc(N)nc2=O)O1 [LAI-007, ((2S,5R)-5-(4-amino-2-oxopyrimidin-1(2H)-yl)tetrahydrofuran-2-yl)methyl butyl hydrogen phosphate] | 5000 | 25000 | 5000 | 6.25 | 6.25 | 6.25 | 6.25 | 1.56 | 6.25 | 6.25 | 12.50 | 6.25 | 3.13 | 3.13 | 6.25 | 6.25 | 3.13 | 1.56 | 6.25 | 6.25 | MIC (E. coli MMX-8870): 12.50; MIC (H. influenzae ATCC-49247): 1.56; MIC [7]: 6.25; MIC (K. pneumoniae ATCC-43816): 12.50; MIC (M. morganii CDC-0519): 3.13; MIC (P. aeruginosa ATCC-27853): 8.75; MIC (P. mirabilis CDC-0155): 3.13
CCCCOP(=O)(O)OC[C@H]1O[C@@H](n2ccc(N(C)C)nc2=O)C[C@@H]1O [LAI-008, butyl (((2R,3S,5R)-5-(4-(N,N-dimethylamino)-2-oxopyrimidin-1(2H)-yl)-3-hydroxytetrahydrofuran-2-yl)methyl) hydrogen phosphate] | 25000 | 1000 | 5000 | 3.13 | 6.25 | 3.13 | 3.13 | 3.12 | 6.25 | 1.56 | 3.12 | 0.39 | 3.12 | 3.13 | 12.50 | 12.50 | 3.13 | 3.12 | 12.50 | 6.25 | MIC (Candida albicans (22972)): 50 mg/mL; MIC (E. coli MMX-8870): 12.50; MIC (H. influenzae ATCC-49247): 0.78; MIC [7]: 12.50; MIC (K. pneumoniae ATCC-43816): 12.50; MIC (M. morganii CDC-0519): 3.13; MIC (P. aeruginosa ATCC-27853): 5.63; MIC (P. mirabilis CDC-0155): 3.13
CCCCOP(=O)(O)OC[C@H]1O[C@@H](n2ccc(N(C)C)nc2=O)[C@H](OC)[C@@H]1O [LAK-021, (2R,3S,4R,5R)-5-(4-N,N-dimethylamino-2-oxopyrimidin-1(2H)-yl)-3-hydroxy-4-methoxy-tetrahydrofuran-2-methyl butyl phosphate] | 4500 | 1250 | 800 | 3.13 | 3.13 | 3.13 | 3.13 | 0.78 | 6.25 | 3.13 | 0.78 | 3.13 | 0.78 | 1.56 | 1.56 | 1.56 | 1.56 | 0.78 | 1.56 | 0.78 | MIC (Candida albicans (22972)): > 50 mg/mL; MIC (E. coli MMX-8870): 1.56; MIC (H. influenzae ATCC-49247): 0.39; MIC [7]: 1.56; MIC (K. pneumoniae ATCC-43816): 1.56; MIC (M. morganii CDC-0519): 1.56; MIC (P. aeruginosa ATCC-27853): 0.78; MIC (P. mirabilis CDC-0155): 1.56
CCCCOP(=O)(O)OC[C@H]1O[C@@H](n2ccc(N(C)C)nc2=O)C(F)(F)[C@@H]1O [LAK-023, (2R,3S,5R)-5-(4-N,N-dimethylamino-2-oxopyrimidin-1(2H)-yl)-2,2-difluoro-3-hydroxytetrahydrofuranyl-2-methyl butyl phosphate] | 3800 | 800 | 400 | 3.13 | 6.25 | 3.13 | 1.56 | 0.39 | 6.25 | 1.56 | 0.78 | 0.78 | 1.56 | 1.56 | 0.78 | 0.78 | 1.56 | 1.56 | 0.78 | 0.78 | MIC (Candida albicans (22972)): > 12.5 mg/mL; MIC (E. coli MMX-8870): 0.78; MIC (H. influenzae ATCC-49247): 0.39; MIC [7]: 0.78; MIC (K. pneumoniae ATCC-43816): 1.56; MIC (M. morganii CDC-0519): 3.13; MIC (P. aeruginosa ATCC-27853): 0.39; MIC (P. mirabilis CDC-0155): 1.56
